# Data from patent publication US20040110821A1, “GAL3 receptor antagonists for the treatment of affective disorders” (priority 2002, published 2004).
# Target: T1, human GAL1 receptor (Homo sapiens, UniProt P47211)
# T1 construct: expressed in transfected cells
# T1 sequence (P47211 1-349): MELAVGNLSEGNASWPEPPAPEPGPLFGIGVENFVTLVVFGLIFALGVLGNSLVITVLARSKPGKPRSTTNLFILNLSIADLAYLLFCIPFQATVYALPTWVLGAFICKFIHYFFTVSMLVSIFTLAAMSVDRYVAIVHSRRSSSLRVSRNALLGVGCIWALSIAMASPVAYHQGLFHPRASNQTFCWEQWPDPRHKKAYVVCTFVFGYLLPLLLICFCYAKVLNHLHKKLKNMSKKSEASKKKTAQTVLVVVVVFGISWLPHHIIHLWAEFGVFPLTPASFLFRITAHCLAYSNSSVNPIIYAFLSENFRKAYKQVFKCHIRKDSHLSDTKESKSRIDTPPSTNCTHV
# Assay: Radioligand binding at cloned human GAL1 receptor
# Details: indolones, Table 4, read-out: Ki (nM) GalR 1
# Method: The present invention provides for a method of determining the binding affinity of a GAL3 antagonist, wherein the GAL3 antagonist is dissolved in a “suitable solvent”. A “suitable solvent” means one which permits the measurement of binding affinity of the GAL3 antagonist to the human GAL3 receptor at concentrations less than 1 μM, preferably less than 100 nM. Examples of solvents include, but are not limited to, DMSO, ethanol, N,N-dimethylacetamide, or water. For indolones, the preferred solvent is 3% DMSO (final concentration in the assay). For pyrimidines, the preferred solvent is 1% ethanol/0.09% polypuronic acid F-127 (final concentration in the assay). For any other type of compounds, the preferred solvent is the solvent which permits the measurement of binding affinity of a GAL3 antagonist at the lowest concentration. Once a suitable solvent is ascertained for the binding assay of the human GAL3 receptor, the same solvent is used in assays to determine the binding affinity for instance, at the GAL1 receptor.
# The binding properties of the pyrimidines of the present invention were evaluated at the cloned human galanin receptors, GAL1, GAL2, and GAL3, using protocols described herein.
# The binding properties of the indolones of the present invention were evaluated at the cloned human galanin receptors, GAL1, GAL2, and GAL3, using protocols described herein.
# LM(tk-) cells were stably transfected with the human GAL1 or GAL3 receptor. CHO cells were stably transfected with the human GAL2 receptor.
# cDNAs for the human and rat GAL1, and human and rat GAL3 receptors were transfected with a G-418 resistant gene into the mouse fibroblast LM(tk-) cell line by a calcium phosphate transfection method (Cullen, 1967). Stably transfected cells were selected with G-418. Human and rat GAL2 receptors were similarly transfected into CHO cells.
# Membranes were harvested from stably transfected LM(tk-) cells. Adherent cells were washed twice in ice-cold phosphate buffered saline (138 mM NaCl, 8.1 mM Na2HPO4, 2.5 mM KCl, 1.2 mM KH2PO4, 0.9 mM CaCl2, 0.5 mM MgCl2, pH 7.4) and lysed by sonication in ice-cold sonication buffer (20 mM Tris-HCl, 5 mM EDTA, pH 7.7). Large particles and debris were cleared by low speed centrifugation (200×g, 5 min, 4° C.). Membranes were collected from the supernatant fraction by centrifugation (32,000×g, 18 min, 4° C.), washed with ice-cold hypotonic buffer, and collected again by centrifugation (32,000×g, 18 min, 4° C.). The final membrane pellet was resuspended by sonication into a small volume of ice-cold binding buffer (−1 ml for every 5 plates: 10 mM NaCl, 20 mM HEPES, 0.22 mM KH2PO4, 1.26 mM CaCl2, 0.81 mM MgSO4, pH 7.4). Protein concentration was measured by the Bradford method (Bradford, 1976) using Bio-Rad Reagent, with bovine serum albumin as a standard. Membranes were held on ice for up to one hour and used fresh, or flash frozen and stored in liquid nitrogen. Membranes were prepared similarly from CHO cells.
# Galanin Receptors: Binding assays were performed according to the following published methods: human GAL3 (PCT International Publication No. WO 98/15570), human GAL1 (PCT International Publication No. WO 95/2260) human GAL2 (PCT International Publication No. WO 97/26853).
# Binding data were analyzed using nonlinear regression and statistical techniques available in the GraphPAD Prism package (San Diego, Calif.). Enzymatic assay data were derived from a standard curve of reference compound data.
smiles,measurement,value
"O=C1C(=Nc2cccc(C(F)(F)F)c2)c2ccccc2N1c1ccccc1 [Example 92, 1-PHENYL-3-[[3-(TRIFLUOROMETHYL)PHENYL]IMINO]-1,3-DIHYDRO-2H-INDOL-2-ONE]",Ki,> 10000 nM
